Values joined by “and” are separate entries in the source; they are usually repeats but may differ in a detail not shown here. Identical values can stand only once. Like-named read-outs stand apart in the source and are kept apart here.
Experiments:
CYP2C9 = biological target: T1, CYP2C9 (Homo sapiens, UniProt P11712); assay: Inhibition of CYP450 2C9; type: in vitro ADME; conditions: CYP450 isoform inhibition kit (BD Biosciences), probe MFC
T1 construct: purchased BD Biosciences
Experimental: (§1) A HepG2 cytotoxicity assay was used to determine a cellular selectivity index. HepG2 cells were seeded into 96-well plates in EMEM medium. Compounds were assessed for their effect upon cellular viability (Supplementary Methods 5.1). Inhibition of CYP450 was determined using kits from BD Biosciences (Supplementary Methods 5.2). Metabolic stability was determined using mouse […] tested at a single concentration of 5 µM. Plasma protein binding was determined using mouse and human plasma at a single concentration of 10 µM (Supplementary Methods 5.4). All PK studies in mice were carried out by Pharmidex (Supplementary Methods 6.1).
The compounds were investigated for their inhibitory effect on cytochrome P450 (CYP450) activity using five CYP450 isoforms (with fluorescent substrates in brackets): 3A4 (two substrates, BFC and DBF), 2D6 (AMMC), 2C9 (MFC), 2C19 (CEC) and 1A2 (CEC). Kits from BD Biosciences were used along with the method described by the manufacturer. […] Fluorescence was measured using a SpectraMax M5 plate reader.

T. b. brucei GVR35-VSL2 = assay: Mouse model of stage 1 and stage 2 HAT, bioluminescence imaging; type: in vivo, T. b. brucei in female CD-1 mice; conditions: for Side head bioluminescence - Total Flux: D23, individual mice, Supp_Fig13; for parasitaemia in brains of saline-perfused mice: stage 2, day 23, ex vivo; for bioluminescence signal in the body, stage 2 treatment: treatment from day 21
Source text: An alternative mouse model for stage 1 (acute) and stage 2 (CNS-involved) HAT has been developed using a transgenic cell line derived from the pleiomorphic T. b. brucei GVR35 that expresses red-shifted firefly luciferase[17],[18]. […] T. b. brucei GVR35-infected mice present stage 1 disease by day 7 post infection with progression to stage 2 by day 21. By injecting the mouse with luciferin, the level of parasitaemia can be estimated in real time by monitoring the luminescence. Unlike monomorphic Lister 427 T. b. brucei, the pleiomorphic GVR35 T. b. brucei is controlled by a quorum-sensing mechanism resulting in the significant increase in survival time in mice and lower blood parasitaemia that occurs in waves. This extended survival time is also accompanied by parasite dissemination to multiple tissues and organs, including the skin, adipose tissue, lung and brain, with parasite loads increasing over time[17],[19].
For the mouse model of stage 1 and stage 2 HAT T. b. brucei GVR35-VSL2 parasites (3 × 10^4) were injected into a single donor female CD-1 mouse intraperitoneally. Once infection was established, starting on day 7 for stage 1 studies and day 21 for stage 2 studies, mice were either left untreated (n = 3) or dosed by oral gavage with CTCB compound in Cremophor EL: EtOH: D-PBS (30:10:60 v/v; n = 6). Progression of T. b. brucei GVR35-VSL2 infection was monitored primarily by in vivo bioluminescence imaging of infected mice using an IVIS Spectrum (PerkinElmer). For stage 1 studies, imaging of infected mice was performed before treatment on day 7 post infection and on days following the treatment (days 8, 9 and 14). Imaging on groups of three mice was performed 12 min after intraperitoneal injection of 150 mg kg^−1 D-luciferin (Promega) in PBS. For stage 2 studies, mice were imaged prior to treatment on day 21, and subsequently on days 22 and 23. On day 23, 24 h after the final dose, mice were sacrificed by cervical dislocation and perfused with PBS containing 15 g L^−1 glucose to allow ex vivo imaging of whole brains (Supplementary Figs. 12 and 13).
Female CD-1 (Charles River UK; 6-8 weeks old) mice were infected with 3 × 10^4 T. b. brucei GVR35-VSL2 bloodstream form parasites intraperitoneally. T. b. brucei GVR35-VSL2 expresses red-shifted luciferase and provides a better signal for imaging (13). Once infection was established, starting on day 7 for Stage 1 studies and day 21 for Stage 2 studies, mice were either left untreated (n=3) or dosed by oral gavage with CTCB compound in Cremophor EL: EtOH : D-PBS (30:10:60 v/v) (n = 6). Additional groups of mice (n=3) that received either a single intraperitoneal dose of diminazene aceturate (Sigma-Aldrich) at 40 mg/kg in sterile water or 0.1 ml melarsoprol gel (14) containing 3.6 mg melarsoprol, applied topically for 3 consecutive days, served as controls for Stage 1 and Stage 2 treatment studies, respectively.
Progression of T. b. brucei GVR35-VSL2 infection was monitored primarily by in vivo bioluminescence imaging of infected mice using an IVIS Spectrum (PerkinElmer) as described previously (5). For stage 1 studies, imaging of infected mice was performed before treatment on day 7 post-infection and in days following the treatment (days 8, 9 and 14). Imaging on groups of three mice was performed 12 minutes after intraperitoneal injection of 150 mg/kg D-luciferin (Promega) in PBS. For stage 2 studies, mice were imaged prior to treatment on day 21 and subsequently on days 22 and 23. On day 23, 24 hours after the final dose, mice were sacrificed by cervical dislocation and perfused with phosphate-buffered saline containing 15 g.L^−1 glucose to allow ex vivo imaging of whole brains. To this end, 100 μl D-luciferin was administered onto the brain surface and imaging performed immediately thereafter.

[1] = Mouse brain tissue binding; type: in vitro ADME; conditions: read-out: Mouse brain tissue binding fu (%)
Human hERG = Human hERG (Homo sapiens, UniProt Q12809); assay: Human hERG inhibition
Human hERG, sequence (Q12809 whole entry): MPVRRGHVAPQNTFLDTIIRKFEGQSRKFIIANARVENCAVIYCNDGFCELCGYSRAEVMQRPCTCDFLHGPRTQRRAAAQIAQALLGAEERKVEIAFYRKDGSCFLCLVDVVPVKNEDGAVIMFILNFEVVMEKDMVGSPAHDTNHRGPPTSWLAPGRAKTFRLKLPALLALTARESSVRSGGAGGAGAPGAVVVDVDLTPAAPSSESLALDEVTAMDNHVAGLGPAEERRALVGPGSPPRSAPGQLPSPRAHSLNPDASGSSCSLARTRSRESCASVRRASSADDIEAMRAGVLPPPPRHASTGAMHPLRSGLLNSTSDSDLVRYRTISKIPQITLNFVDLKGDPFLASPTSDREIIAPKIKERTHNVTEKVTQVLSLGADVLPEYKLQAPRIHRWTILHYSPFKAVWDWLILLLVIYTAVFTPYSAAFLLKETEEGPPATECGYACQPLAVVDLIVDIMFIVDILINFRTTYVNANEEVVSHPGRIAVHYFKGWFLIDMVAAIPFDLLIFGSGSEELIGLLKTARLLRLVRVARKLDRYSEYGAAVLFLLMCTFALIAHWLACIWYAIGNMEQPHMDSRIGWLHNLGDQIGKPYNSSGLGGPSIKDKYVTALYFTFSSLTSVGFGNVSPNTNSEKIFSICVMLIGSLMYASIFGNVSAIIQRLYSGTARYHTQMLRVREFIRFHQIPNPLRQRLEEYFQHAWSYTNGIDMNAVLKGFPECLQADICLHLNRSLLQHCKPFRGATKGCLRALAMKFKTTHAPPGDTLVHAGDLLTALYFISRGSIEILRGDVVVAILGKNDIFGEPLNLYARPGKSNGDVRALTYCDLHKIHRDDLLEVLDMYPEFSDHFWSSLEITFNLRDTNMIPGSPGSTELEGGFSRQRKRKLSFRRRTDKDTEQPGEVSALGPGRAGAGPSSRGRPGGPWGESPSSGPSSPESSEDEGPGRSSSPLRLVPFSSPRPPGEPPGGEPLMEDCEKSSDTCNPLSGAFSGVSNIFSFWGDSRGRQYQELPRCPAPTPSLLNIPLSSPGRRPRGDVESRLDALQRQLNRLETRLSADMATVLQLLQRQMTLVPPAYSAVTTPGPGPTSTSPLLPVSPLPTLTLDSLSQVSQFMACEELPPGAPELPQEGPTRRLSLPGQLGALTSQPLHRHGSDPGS
Source text: Methods are described in Supplementary Methods 5 and 6. Enzyme assay results are means ± SD in multiple assays. ADME results are averages of n = 2 or 3 measurements in individual assays.

[2] = Metabolic stability, mouse liver microsomes; type: in vitro ADME; conditions: read-out: MLM Clint
Experimental: as §1
Compounds were tested for their metabolic stability using mouse and human liver microsomes (MLM and HLM). The compounds were tested at a single concentration of 5 µM. The samples were crashed with acetonitrile and put through protein precipitation plates. The eluent was analysed by LC/MS or LC/MS/MS.

[3] = Plasma protein binding, mouse plasma; type: in vitro ADME
Experimental: as §1
Compounds were tested for protein binding using mouse and human plasma at a single concentration of 10 µM and measured by equilibrium dialysis between plasma and buffer. The amount of parent was determined on both sides of the membrane after incubating for 4 hours at 37 °C. The samples were crashed with acetonitrile and put through protein precipitation plates. The eluent was analysed by LC/MS or LC/MS/MS. Output was percentage bound.

[4] = treatment during stage 1 (day 7)
[5] = 10 µM, equilibrium dialysis, read-out: Mouse plasma protein binding fu(%)
[6] = percentage bound, read-out: mouse plasma protein binding value (converted)

T1 sequence (P11712 whole entry, canonical isoform): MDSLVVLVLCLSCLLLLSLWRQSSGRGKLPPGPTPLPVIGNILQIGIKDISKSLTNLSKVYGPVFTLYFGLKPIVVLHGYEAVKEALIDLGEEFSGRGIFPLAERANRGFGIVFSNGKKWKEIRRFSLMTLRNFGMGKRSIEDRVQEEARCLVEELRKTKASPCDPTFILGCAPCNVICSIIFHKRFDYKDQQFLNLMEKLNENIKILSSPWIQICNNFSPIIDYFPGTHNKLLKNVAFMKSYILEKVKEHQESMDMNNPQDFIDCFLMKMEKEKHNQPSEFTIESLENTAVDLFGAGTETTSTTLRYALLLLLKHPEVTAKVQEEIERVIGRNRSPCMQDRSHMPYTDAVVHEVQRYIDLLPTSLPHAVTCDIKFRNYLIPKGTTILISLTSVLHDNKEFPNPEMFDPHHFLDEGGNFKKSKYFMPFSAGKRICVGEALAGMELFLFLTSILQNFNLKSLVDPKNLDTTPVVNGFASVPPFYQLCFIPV

Structure (SMILES)	inhibition at 10 µM (CYP2C9) [%]	detection of parasites in blood delayed to (T. b. brucei GVR35-VSL2; [4]) [day post infection]	effect on parasitaemia, stage 1 treatment (T. b. brucei GVR35-VSL2; [4])	fraction unbound [1]	IC50 (Human hERG) [µM]	microsomal CLint at 5 µM [2] [µL/min/mg]	fraction unbound at 4 h, 10 µM [3, 5]	fraction unbound at 4 h, 10 µM [3, 6]	Side head bioluminescence - Total Flux (T. b. brucei GVR35-VSL2)	parasitaemia in brains of saline-perfused mice (T. b. brucei GVR35-VSL2)	bioluminescence signal in the body, stage 2 treatment (T. b. brucei GVR35-VSL2)
CN(C)CCn1ccc2c(ccn2Cc2ccc(Cl)c(Cl)c2)c1=O [CTCB-405, 1-[(3,4-Dichlorophenyl)methyl]-5-[2-(dimethylamino)ethyl] pyrrolo[3,2-c]pyridin-4-one]	11	14	reduced parasitaemia in the body and blood of mice	0.008	3.98	70	0.058	0.06			
CN(C)CCn1ccc2c(ccn2Cc2ccc(Cl)c(Br)c2)c1=O [CTCB-470, 1-[(3-Bromo-4-chlorophenyl)methyl]-5-[2-(dimethylamino)ethyl] pyrrolo[3,2-c]pyridin-4-one]	28.5			0.006	1.69	91	0.06	0.058	1.100E+07 p/s and 7.724E+06 p/s and 5.606E+06 p/s and 1.306E+06 p/s and 2.050E+07 p/s and 2.702E+06 p/s	very clear reduction in parasitaemia	fast and significant signal reduction in the body
CN(C)CCn1ccc2c(ccn2Cc2ccc(F)c(Br)c2)c1=O [CTCB-508, 1-[(3-Bromo-4-fluorophenyl)methyl]-5-[2-(dimethylamino)ethyl] pyrrolo[3,2-c]pyridin-4-one]	6.1			0.017	4.75	56	0.18		7.338E+06 p/s and 1.920E+06 p/s and 5.353E+06 p/s and 4.553E+06 p/s and 1.258E+07 p/s and 2.035E+07 p/s	very clear reduction in parasitaemia	fast and significant signal reduction in the body

Reference: paper PMC7887271, “Fast acting allosteric phosphofructokinase inhibitors block trypanosome glycolysis and cure acute African trypanosomiasis in mice” (Nature Communications, 2021)
